The kinase profiling compilation of Christmann-Franck et al. (2016)

Key:
Assay in all cases: KINOMEscan competition binding
Details in all cases: compound 1.0 µM
DYRK1B (human) = DYRK1B (human) (UniProt Q9Y463)
[1] = tested on: EGFR (human), P00533 [G719C]
CAMK2B (human) = CAMK2B (human) (UniProt Q13554)
NTRK3 (human) = NTRK3 (human) (UniProt Q16288)
LYN (human) = LYN (human) (UniProt P07948)
FLT4 (human) = FLT4 (human) (UniProt P35916)
FGR (human) = FGR (human) (UniProt P09769)
NTRK2 (human) = NTRK2 (human) (UniProt Q16620)
Chain of NTRK2 (human) (Q16620 whole entry, looked up): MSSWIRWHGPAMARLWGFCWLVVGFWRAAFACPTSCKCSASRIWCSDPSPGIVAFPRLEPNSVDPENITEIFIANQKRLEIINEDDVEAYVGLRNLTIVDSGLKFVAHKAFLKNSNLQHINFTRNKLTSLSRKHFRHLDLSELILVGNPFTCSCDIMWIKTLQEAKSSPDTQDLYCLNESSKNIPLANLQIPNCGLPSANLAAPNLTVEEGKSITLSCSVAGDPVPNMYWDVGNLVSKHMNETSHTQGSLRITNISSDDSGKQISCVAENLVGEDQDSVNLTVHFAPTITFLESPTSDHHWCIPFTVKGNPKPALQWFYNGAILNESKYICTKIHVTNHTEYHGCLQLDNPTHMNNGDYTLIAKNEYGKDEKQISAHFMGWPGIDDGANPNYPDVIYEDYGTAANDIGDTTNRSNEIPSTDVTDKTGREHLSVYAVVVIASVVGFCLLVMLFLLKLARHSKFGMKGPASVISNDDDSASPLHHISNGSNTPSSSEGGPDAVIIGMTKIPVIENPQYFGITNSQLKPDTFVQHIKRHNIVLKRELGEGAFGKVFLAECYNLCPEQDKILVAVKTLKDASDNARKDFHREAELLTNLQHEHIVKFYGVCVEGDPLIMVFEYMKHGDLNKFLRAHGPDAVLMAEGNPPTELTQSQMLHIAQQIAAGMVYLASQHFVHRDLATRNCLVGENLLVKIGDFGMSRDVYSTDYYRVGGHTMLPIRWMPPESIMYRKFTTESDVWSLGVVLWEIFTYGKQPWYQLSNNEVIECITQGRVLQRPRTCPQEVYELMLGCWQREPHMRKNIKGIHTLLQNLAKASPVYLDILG

PRKD2 (human) = PRKD2 (human) (UniProt Q9BZL6)
PRKD1 (human) = PRKD1 (human) (UniProt Q15139)
STK10 (human) = STK10 (human) (UniProt O94804)
Chain of STK10 (human) (O94804 whole entry, looked up): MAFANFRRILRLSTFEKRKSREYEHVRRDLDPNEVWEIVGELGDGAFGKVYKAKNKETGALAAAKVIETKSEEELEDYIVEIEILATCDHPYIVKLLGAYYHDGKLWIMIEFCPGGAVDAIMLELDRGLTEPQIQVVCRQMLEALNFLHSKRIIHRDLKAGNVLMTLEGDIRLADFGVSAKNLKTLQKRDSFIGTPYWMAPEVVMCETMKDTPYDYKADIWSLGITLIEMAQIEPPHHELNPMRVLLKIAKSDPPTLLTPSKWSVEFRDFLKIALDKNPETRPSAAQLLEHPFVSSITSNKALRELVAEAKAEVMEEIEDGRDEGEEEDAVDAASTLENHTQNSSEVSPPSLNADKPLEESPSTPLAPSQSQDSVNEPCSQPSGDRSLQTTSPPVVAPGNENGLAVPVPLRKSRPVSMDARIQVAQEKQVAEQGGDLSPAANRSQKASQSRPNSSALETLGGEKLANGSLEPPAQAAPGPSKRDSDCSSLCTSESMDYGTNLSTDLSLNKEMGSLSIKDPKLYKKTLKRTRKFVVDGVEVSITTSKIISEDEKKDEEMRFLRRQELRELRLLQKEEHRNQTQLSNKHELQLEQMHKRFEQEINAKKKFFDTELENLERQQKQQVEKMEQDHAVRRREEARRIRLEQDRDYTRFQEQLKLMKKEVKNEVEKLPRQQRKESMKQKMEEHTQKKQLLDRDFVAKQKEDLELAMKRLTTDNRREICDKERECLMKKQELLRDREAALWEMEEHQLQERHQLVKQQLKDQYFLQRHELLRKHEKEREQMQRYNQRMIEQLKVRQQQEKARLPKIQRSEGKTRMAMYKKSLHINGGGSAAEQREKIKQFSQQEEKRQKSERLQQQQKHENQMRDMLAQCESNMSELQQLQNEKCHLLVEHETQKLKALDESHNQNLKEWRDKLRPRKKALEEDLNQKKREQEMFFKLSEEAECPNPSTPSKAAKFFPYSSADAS

PKN2 (human) = PKN2 (human) (UniProt Q16513)
PRKD3 (human) = PRKD3 (human) (UniProt O94806)
CDKL5 (human) = CDKL5 (human) (UniProt O76039)
MAP4K1 (human) = MAP4K1 (human) (UniProt Q92918)
[2] = tested on: EGFR (human), P00533 [P753S; 747-752 del]
MAP4K2 (human) = MAP4K2 (human) (UniProt Q12851)
LATS1 (human) = LATS1 (human) (UniProt O95835)
PRKACB (human) = PRKACB (human) (UniProt P22694)
NTRK1 (human) = NTRK1 (human) (UniProt P04629)
MAP4K3 (human) = MAP4K3 (human) (UniProt Q8IVH8)
NIM1 (human) = NIM1 (human) (UniProt Q8IY84)
TLK1 (human) = TLK1 (human) (UniProt Q9UKI8)
HCK (human) = HCK (human) (UniProt P08631)
[3] = tested on: RET (human), P07949 [V804M]
Chain of RET (human), P07949 [V804M] (P07949 whole entry V804M, looked up): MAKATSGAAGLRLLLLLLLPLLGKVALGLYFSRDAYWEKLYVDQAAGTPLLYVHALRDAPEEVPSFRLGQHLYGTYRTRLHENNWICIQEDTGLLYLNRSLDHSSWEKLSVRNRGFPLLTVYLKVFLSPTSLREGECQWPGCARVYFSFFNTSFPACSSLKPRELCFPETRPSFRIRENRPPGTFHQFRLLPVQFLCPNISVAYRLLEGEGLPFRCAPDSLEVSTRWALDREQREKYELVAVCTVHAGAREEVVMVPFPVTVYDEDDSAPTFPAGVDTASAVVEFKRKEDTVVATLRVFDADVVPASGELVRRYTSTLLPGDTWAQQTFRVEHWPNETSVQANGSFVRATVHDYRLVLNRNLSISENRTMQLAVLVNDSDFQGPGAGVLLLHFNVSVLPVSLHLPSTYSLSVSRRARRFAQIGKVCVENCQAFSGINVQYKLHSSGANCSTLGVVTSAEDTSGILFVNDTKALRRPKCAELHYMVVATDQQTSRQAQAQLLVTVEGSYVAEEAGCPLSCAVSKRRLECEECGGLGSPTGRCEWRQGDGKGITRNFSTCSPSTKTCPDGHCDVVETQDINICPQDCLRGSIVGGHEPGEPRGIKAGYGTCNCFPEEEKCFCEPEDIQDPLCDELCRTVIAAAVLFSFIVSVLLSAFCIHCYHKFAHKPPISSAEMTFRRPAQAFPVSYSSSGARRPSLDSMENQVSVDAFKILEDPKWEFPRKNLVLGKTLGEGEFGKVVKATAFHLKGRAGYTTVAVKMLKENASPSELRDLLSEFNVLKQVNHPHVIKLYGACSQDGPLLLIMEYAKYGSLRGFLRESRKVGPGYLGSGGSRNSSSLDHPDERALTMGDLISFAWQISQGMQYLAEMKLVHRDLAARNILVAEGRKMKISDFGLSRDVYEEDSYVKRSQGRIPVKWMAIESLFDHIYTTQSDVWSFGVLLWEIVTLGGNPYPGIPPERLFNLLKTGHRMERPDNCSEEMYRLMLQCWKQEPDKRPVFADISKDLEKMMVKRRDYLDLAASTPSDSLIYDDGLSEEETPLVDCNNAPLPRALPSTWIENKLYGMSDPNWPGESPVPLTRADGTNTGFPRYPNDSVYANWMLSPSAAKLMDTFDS

[4] = tested on: ABL1 (human), P00519 [Y253F]
WEE2 (human) = WEE2 (human) (UniProt P0C1S8)
RAF1 (human) = RAF1 (human) (UniProt P04049)
CAMK1G (human) = CAMK1G (human) (UniProt Q96NX5)
Chain of CAMK1G (human) (Q96NX5 whole entry, looked up): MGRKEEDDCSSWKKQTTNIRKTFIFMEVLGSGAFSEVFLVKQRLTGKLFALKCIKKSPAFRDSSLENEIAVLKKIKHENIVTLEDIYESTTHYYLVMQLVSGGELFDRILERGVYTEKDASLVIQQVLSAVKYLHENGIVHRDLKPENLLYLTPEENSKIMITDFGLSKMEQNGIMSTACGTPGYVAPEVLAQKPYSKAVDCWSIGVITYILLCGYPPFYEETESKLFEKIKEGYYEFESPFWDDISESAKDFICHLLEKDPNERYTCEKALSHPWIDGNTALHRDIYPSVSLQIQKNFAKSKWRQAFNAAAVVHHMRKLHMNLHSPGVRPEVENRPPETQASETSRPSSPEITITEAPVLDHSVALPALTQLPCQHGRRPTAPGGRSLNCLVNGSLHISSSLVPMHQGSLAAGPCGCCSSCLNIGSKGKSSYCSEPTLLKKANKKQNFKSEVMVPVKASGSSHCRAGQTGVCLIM

CDC42BPA (human) = CDC42BPA (human) (UniProt Q5VT25)
STK4 (human) = STK4 (human) (UniProt Q13043)
Chain of STK4 (human) (Q13043 whole entry, looked up): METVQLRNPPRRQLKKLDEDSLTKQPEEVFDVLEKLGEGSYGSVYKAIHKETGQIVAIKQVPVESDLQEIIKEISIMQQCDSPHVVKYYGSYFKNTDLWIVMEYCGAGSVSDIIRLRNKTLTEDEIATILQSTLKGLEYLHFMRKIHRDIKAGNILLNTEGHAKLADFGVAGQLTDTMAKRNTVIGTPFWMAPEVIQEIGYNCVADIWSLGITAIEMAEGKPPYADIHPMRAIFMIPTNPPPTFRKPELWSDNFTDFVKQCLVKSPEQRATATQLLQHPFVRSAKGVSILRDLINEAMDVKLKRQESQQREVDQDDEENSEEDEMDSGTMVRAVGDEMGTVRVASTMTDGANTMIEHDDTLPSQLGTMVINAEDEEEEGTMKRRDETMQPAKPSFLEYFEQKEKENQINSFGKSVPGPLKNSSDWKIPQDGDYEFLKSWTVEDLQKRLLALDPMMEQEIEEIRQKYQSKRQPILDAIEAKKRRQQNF

FGFR4 (human) = FGFR4 (human) (UniProt P22455)
MARK2 (human) = MARK2 (human) (UniProt Q7KZI7)
MAP4K4 (human) = MAP4K4 (human) (UniProt O95819)
PAK6 (human) = PAK6 (human) (UniProt Q9NQU5)
LTK (human) = LTK (human) (UniProt P29376)
[5] = tested on: ABL1 (human), P00519 [F317L]
EPHA4 (human) = EPHA4 (human) (UniProt P54764)
EPHB3 (human) = EPHB3 (human) (UniProt P54753)
PAK1 (human) = PAK1 (human) (UniProt Q13153)

Chain of FGR (human) (P09769 whole entry, looked up): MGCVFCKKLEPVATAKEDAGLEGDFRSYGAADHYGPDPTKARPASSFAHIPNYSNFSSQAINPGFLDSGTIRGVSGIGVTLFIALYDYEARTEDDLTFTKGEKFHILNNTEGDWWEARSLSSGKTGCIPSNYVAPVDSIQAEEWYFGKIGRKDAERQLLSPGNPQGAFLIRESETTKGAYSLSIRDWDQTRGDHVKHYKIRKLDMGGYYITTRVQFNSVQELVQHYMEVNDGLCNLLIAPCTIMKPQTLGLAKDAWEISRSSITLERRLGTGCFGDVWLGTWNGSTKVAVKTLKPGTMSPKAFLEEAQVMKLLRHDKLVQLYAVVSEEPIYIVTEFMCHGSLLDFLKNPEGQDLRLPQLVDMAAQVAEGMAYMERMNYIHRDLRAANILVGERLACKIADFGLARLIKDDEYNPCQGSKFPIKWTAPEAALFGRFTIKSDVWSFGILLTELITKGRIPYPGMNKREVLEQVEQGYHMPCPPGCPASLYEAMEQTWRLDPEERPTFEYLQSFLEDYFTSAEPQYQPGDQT
Chain of LYN (human) (P07948 whole entry, looked up): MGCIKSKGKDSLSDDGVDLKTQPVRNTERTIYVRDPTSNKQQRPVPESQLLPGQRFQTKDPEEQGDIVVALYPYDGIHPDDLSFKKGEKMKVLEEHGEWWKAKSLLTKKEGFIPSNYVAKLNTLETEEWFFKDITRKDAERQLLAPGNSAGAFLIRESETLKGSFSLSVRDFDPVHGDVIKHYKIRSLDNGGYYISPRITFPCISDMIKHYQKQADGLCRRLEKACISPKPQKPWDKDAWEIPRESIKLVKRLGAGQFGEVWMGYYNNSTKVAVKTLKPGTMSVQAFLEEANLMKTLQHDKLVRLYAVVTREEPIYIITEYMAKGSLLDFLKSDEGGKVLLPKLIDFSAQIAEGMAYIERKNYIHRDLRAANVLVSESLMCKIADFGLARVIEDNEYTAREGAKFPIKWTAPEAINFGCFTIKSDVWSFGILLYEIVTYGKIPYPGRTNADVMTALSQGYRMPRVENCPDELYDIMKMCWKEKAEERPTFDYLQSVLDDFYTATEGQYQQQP

SMILES: Nc1cc(C(F)(F)F)c(-c2cc(N3CCOCC3)nc(N3CCOCC3)n2)cn1
- inhibition of binding (DYRK1B (human)): 0%
- inhibition of binding [1]: 4%
- inhibition of binding (CAMK2B (human)): 18%
- inhibition of binding (NTRK3 (human)): 0%
- inhibition of binding (LYN (human)): 0%
- inhibition of binding (FLT4 (human)): 3%
- inhibition of binding (FGR (human)): 0%
- inhibition of binding (NTRK2 (human)): 0%
- inhibition of binding (PRKD2 (human)): 38%
- inhibition of binding (PRKD1 (human)): 36%
- inhibition of binding (STK10 (human)): 4%
- inhibition of binding (PKN2 (human)): 0%
- inhibition of binding (PRKD3 (human)): 11%
- inhibition of binding (CDKL5 (human)): 50%
- inhibition of binding (MAP4K1 (human)): 0%
- inhibition of binding [2]: 1%
- inhibition of binding (MAP4K2 (human)): 17%
- inhibition of binding (LATS1 (human)): 4%
- inhibition of binding (PRKACB (human)): 4%
- inhibition of binding (NTRK1 (human)): 4%
- inhibition of binding (MAP4K3 (human)): 0%
- inhibition of binding (NIM1 (human)): 0%
- inhibition of binding (TLK1 (human)): 12%
- inhibition of binding (HCK (human)): 0%
- inhibition of binding [3]: 14%
- inhibition of binding [4]: 0%
- inhibition of binding (WEE2 (human)): 0%
- inhibition of binding (RAF1 (human)): 7%
- inhibition of binding (CAMK1G (human)): 0%
- inhibition of binding (CDC42BPA (human)): 0%
- inhibition of binding (STK4 (human)): 0%
- inhibition of binding (FGFR4 (human)): 0%
- inhibition of binding (MARK2 (human)): 0%
- inhibition of binding (MAP4K4 (human)): 9%
- inhibition of binding (PAK6 (human)): 16%
- inhibition of binding (LTK (human)): 0%
- inhibition of binding [5]: 0%
- inhibition of binding (EPHA4 (human)): 2%
- inhibition of binding (EPHB3 (human)): 4%
- inhibition of binding (PAK1 (human)): 4%
